ChEMBL document CHEMBL4765451, “The one-pot synthesis of butyl-1H-indol-3-alkylcarboxylic acid derivatives in ionic liquid as potent dual-acting agent for management of BPH” (Eur J Med Chem, 2020)

Assays:
[1] = Inhibition of 5-alpha reductase in rat liver microsomes assessed as inhibition of DHT formation using testosterone as substrate incubated for 10 mins by NADPH assay
[2] = target: T1, Alpha-1A adrenergic receptor (Homo sapiens, UniProt P35348); test: Antagonist activity at human alpha1A receptor transfected in HEK293 cells co-transfected with Galpha16 assessed as reduction in intracellular calcium release incubated for 40 mins by Fluo-4AM dye based fluorescence assay; assay type: functional, cell-based
T1 sequence (P35348 whole entry): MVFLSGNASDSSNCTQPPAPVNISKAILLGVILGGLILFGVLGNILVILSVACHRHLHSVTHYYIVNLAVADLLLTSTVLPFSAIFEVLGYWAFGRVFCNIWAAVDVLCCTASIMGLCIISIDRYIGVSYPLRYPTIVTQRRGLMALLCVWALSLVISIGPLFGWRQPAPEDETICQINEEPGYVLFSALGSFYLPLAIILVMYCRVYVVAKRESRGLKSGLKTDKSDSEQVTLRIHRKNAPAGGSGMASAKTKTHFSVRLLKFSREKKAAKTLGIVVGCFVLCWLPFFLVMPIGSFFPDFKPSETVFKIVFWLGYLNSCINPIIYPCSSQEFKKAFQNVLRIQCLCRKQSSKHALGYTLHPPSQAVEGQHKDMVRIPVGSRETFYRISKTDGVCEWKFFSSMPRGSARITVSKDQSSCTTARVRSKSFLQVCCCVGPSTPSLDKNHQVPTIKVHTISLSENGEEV

[3] = target: T2, Alpha-1B adrenergic receptor (Homo sapiens, UniProt P35368); test: Antagonist activity at human alpha1B receptor transfected in HEK293 cells co-transfected with Galpha16 assessed as reduction in intracellular calcium release incubated for 40 mins by Fluo-4AM dye based fluorescence assay; assay type: functional, cell-based
T2 sequence (P35368 whole entry): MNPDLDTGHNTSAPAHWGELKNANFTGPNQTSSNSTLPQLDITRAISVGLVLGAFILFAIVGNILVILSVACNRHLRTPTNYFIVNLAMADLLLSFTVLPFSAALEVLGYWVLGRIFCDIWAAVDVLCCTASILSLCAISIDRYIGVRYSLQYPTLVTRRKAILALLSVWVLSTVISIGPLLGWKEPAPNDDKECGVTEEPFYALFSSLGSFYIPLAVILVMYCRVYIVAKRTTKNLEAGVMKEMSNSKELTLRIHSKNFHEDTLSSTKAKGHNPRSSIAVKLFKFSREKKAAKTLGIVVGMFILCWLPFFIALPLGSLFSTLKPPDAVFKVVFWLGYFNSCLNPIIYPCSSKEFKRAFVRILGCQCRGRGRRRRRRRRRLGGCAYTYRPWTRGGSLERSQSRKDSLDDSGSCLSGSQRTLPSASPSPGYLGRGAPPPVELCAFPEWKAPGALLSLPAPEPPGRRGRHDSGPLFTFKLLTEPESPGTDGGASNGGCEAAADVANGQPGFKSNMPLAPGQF

[4] = target: T3, Alpha-1D adrenergic receptor (Homo sapiens, UniProt P25100); test: Antagonist activity at human alpha1D receptor transfected in HEK293 cells co-transfected with Galpha16 assessed as reduction in intracellular calcium release incubated for 40 mins by Fluo-4AM dye based fluorescence assay; assay type: functional, cell-based
T3 sequence (P25100 whole entry): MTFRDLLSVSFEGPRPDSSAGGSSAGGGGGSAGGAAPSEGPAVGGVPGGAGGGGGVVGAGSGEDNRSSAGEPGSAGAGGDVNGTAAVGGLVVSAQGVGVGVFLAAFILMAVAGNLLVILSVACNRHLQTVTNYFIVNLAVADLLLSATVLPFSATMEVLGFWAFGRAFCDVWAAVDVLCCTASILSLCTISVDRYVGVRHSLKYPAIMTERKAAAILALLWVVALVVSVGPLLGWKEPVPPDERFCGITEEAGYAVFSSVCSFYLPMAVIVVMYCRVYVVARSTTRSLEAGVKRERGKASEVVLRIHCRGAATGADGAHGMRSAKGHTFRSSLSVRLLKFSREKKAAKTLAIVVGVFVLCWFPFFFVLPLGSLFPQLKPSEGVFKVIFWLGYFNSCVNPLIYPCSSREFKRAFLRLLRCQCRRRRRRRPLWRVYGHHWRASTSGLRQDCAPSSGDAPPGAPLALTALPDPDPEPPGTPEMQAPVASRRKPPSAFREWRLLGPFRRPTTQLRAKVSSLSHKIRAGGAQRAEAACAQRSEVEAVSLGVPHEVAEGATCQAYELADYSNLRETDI

[5] = AUC (0 to infinity) in Sprague-Dawley rat at 20 mg/kg, ip; assay type: ADME, organism-based; design: time infinity, route intraperitoneal, dose 20 mg/kg; conditions: in vivo
[6] = Tmax in Sprague-Dawley rat at 20 mg/kg, ip; assay type: ADME, organism-based; conditions: in vivo
Caco-2 = test: Cytotoxicity against human Caco-2 cells assessed as reduction in cell viability at 0.390625 to 100 uM incubated for 72 hrs by MTT assay; assay type: cell-based; conditions: caco-2, 72 h, dose 0.390625-100 µM
[7] = Half life in Sprague-Dawley rat at 2 mg/kg, iv; assay type: ADME, organism-based; conditions: in vivo
[8] = Tmax in Sprague-Dawley rat at 2 mg/kg, iv; assay type: ADME, organism-based; conditions: in vivo
[9] = Cmax in Sprague-Dawley rat at 2 mg/kg, iv; assay type: ADME, organism-based; design: route intravenous, dose 2 mg/kg; conditions: in vivo
[10] = MRT in Sprague-Dawley rat at 20 mg/kg, ip; assay type: ADME, organism-based; conditions: in vivo
[11] = AUC (0 to t) in Sprague-Dawley rat at 20 mg/kg, ip; assay type: ADME, organism-based; design: dose 20 mg/kg; conditions: in vivo
[12] = AUC (0 to t) in Sprague-Dawley rat at 2 mg/kg, iv; assay type: ADME, organism-based; design: dose 2 mg/kg; conditions: in vivo
[13] = Half life in Sprague-Dawley rat at 20 mg/kg, ip; assay type: ADME, organism-based; conditions: in vivo
Huh-7 = test: Cytotoxicity against human Huh-7 cells assessed as reduction in cell viability at 0.390625 to 100 uM incubated for 72 hrs by MTT assay; assay type: cell-based; conditions: huh-7, 72 h, dose 0.390625-100 µM
[14] = AUC (0 to infinity) in Sprague-Dawley rat at 2 mg/kg, iv; assay type: ADME, organism-based; design: time infinity, route intravenous, dose 2 mg/kg; conditions: in vivo
[15] = MRT in Sprague-Dawley rat at 2 mg/kg, iv; assay type: ADME, organism-based; conditions: in vivo
[16] = Cmax in Sprague-Dawley rat at 20 mg/kg, ip; assay type: ADME, organism-based; design: route intraperitoneal, dose 20 mg/kg; conditions: in vivo
[17] = Bioavailability in Sprague-Dawley rat at 20 mg/kg, ip; assay type: ADME, organism-based; conditions: in vivo

Compound	IC50 [1]	IC50 [2]	IC50 [3]	IC50 [4]	further results
O=C(O)CCCc1cn(CCCCCN2CCN(c3ccccc3Cl)CC2)c2ccccc12	612 nM	32.9 nM	> 1000 nM	329 nM	
CC(C)(C)NC(=O)[C@H]1CC[C@H]2[C@@H]3CC[C@H]4NC(=O)C=C[C@]4(C)[C@H]3CC[C@]12C [FINASTERIDE]	590 nM				
CCOc1ccccc1OCCN[C@H](C)Cc1ccc(OC)c(S(N)(=O)=O)c1 [TAMSULOSIN]			4.2 nM	0.15 nM	

Second part, led by results:

IC50 [1]	IC50 [2]	IC50 [3]	IC50 [4]	Compound	further results
> 5000 nM	> 1000 nM	> 1000 nM	189 nM	O=C(O)CCCc1cn(CCCCN2CCN(c3ccccc3Cl)CC2)c2ccccc12	
> 5000 nM	> 1000 nM	9.8 nM	378 nM	COc1ccccc1N1CCN(CCCCCn2cc(CCCC(=O)O)c3ccccc32)CC1	
568 nM	20.8 nM	> 1000 nM	189 nM	COc1ccccc1N1CCN(CCCCn2cc(CCCC(=O)O)c3ccccc32)CC1	AUC(0-inf) [5]: 26.9 ng·h/mL; Tmax [6]: 3 min; Activity (Caco-2): Non-Toxic; half-life [7]: 11 h; Tmax [8]: 3 min; Cmax [9]: 37.9 ng/mL; MRT [10]: 1.49 h; AUC(0-t) [11]: 17.5 ng·h/mL; AUC(0-t) [12]: 12.3 ng·h/mL; half-life [13]: 5.75 h; Activity (Huh-7): Non-Toxic; AUC(0-inf) [14]: 30.5 ng·h/mL; MRT [15]: 1.94 h; Cmax [16]: 89.6 ng/mL; bioavailability [17]: 8.83%
> 5000 nM	> 1000 nM	> 1000 nM	164 nM	COc1ccccc1N1CCN(CCCn2cc(CCCC(=O)O)c3ccccc32)CC1	
